# According to patent EP1849775A1, “Cycloalkane-substituted pyrazoline compounds, their preparation and use as medicaments” (LABORATORIOS DEL DR. ESTEVE, S.A., priority 2006, dated 2007):
# Legend:
# cannabinoid receptors = test: Mouse tetrad model, antagonistic activity against Win 55212-2; assay type: in vivo; conditions: Male NMRI mice; substance injected intravenously 5 minutes before intravenous 1.25 mg/kg Win-55,212; tetrad parameter not specified
# Excerpt: II. In-vivo bioassay system for determination of cannabinoid activity
# Substances with affinity for cannabinoid receptors are known to produce a wide range of pharmacological effects. It is also known that intravenous administration of a substance with affinity for cannabinoid receptors in mice produces analgesia , hypothermia, sedation and catalepsy. Individually, none of these effects can be considered as proof that a tested substance has affinity for cannabinoid-receptors, since all of these effects are common for various classes of centrally active agents. However, substances, which show all of these effects, i.e. substances that are active in this so-called tetrad model are considered to have affinity for the cannabinoid receptors. It has further been shown that cannabinoid receptor antagonists are higly effective in blocking the effects of a cannabinoid agonist in the mouse tetrad model.
# The tetrad model is described, for example, in the publication of A. C. Howlett et al, International Union of Pharmacology XXVII. […]
# Before testing in the behavioral procedures given below, mice are acclimatized to the experimental setting. Pre-Treatment control values are determined for analgesia hot plate latency (in seconds), rectal temperature, sedation and catalepsy.
# In order to determine the agonistic activty of the substance to be tested, the mice are injected intravenously with the substance to be tested or the vehicle alone. 15 minutes after injection, latency in hot plate analgesia is measured. Rectal temperature, sedation and catalepsy are measured 20 minutes after injection.
# In order to determine the antagonistic activity the identical procedure is used as for the determination of the agonistic effects, but with the difference that the substance to be evaluated for its antagonistic activity is injectected 5 minutes before the intravenous injection of 1.25 mg/kg Win-55,212 a known cannabinoid-receptor agonist. […]
# The degree of analgesia is calculated from the formula: %MPE of Analgesia = (PT-B)/(PC-B) × 100 [formula] […]
# CB1-Receptor = molecular target: T1, CB1-Receptor (Homo sapiens, UniProt P21554); test: In-vitro determination of affinity to CB1 receptor (radioligand binding); conditions: Radiologand:[^3H]-CP55940, transfected human CB1 receptors
# T1 construct: purchased Receptor Biology, Inc
# Experimental: I. In-vitro determination of affinity to CB1/CB2-Receptors
# The in-vitro determination of the affinity of the inventive quaternary ammonium salts of substituted pyrazoline compounds to CB1/CB2-Rezeptors is carried out as described in the publication of Ruth A. Ross, Heather C. Brockie et al., "Agonist-inverse agonist characterization at CB1 and CB2 cannabinoid receptors of L-759633, L759656 and AM630", British Journal of Pharmacology, 126, 665-672, (1999), whereby the transfected human CB1 and CB2 receptors of Receptor Biology, Inc. are used. The radioligand used for both receptors is [3H]-CP55940. The respective parts of the description are hereby incorporated by reference and forms part of the present disclosure.
# The affinity of the inventive substituted pyrazoline compounds to CB1/CB2 receptors was determined as described above.
# T1 sequence (P21554 whole entry): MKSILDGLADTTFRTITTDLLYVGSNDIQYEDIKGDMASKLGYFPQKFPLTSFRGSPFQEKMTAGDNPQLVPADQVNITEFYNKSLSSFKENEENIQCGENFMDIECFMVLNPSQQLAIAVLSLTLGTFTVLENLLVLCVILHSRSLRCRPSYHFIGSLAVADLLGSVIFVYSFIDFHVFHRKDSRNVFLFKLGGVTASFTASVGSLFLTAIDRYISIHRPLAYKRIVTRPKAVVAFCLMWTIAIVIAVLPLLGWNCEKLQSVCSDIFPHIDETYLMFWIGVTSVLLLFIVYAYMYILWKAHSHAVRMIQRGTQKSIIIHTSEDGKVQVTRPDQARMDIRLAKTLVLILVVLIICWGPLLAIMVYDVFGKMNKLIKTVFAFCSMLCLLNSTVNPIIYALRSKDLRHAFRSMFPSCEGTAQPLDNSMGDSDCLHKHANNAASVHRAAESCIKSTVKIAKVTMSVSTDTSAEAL
SMILES,Antagonistic Effect in (%) (cannabinoid receptors),IC50 (CB1-Receptor) [µM]
"O=C(NC1CCCCCC1)C1=NN(c2ccc(Cl)cc2Cl)C(c2ccc(Cl)cc2)C1 (stereo not drawn) [Example 1, 5-(4-chlorophenyl)-N-cycloheptyl-1-(2,4-dichlorophenyl)-4,5-dihydro-1H-pyrazole-3-carboxamide]",84,0.1
"O=C(NC1CCCCCC1)C1=NN(c2ccc(Cl)cc2Cl)[C@@H](c2ccc(Cl)cc2)C1 [Example 2, (R)-5-(4-chlorophenyl)-N-cycloheptyl-1-(2,4-dichlorophenyl)-4,5-dihydro-1H-pyrazole-3-carboxamide]",94,0.0158
"O=C(NC1CCCCCCC1)C1=NN(c2ccc(Cl)cc2Cl)C(c2ccc(Cl)cc2)C1 (stereo not drawn) [Example 5, 5-(4-chlorophenyl)-N-cyclooctyl-1-(2,4-dichlorophenyl)-4,5-dihydro-1H-pyrazole-3-carboxamide]",62±5,0.0562
